Test in all cases: Bliss interaction score (quartile over a dose matrix) (fitness difference); higher = more antagonism (negative = synergy)
One assay relates to S. aureus DSM 20231. The essentials:
(§1)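 The Bliss score subtracts expected fitness, the product of the single-drug fitness values, from observed fitness. Fitness is plate-normalised OD595 at entry into stationary phase, relative to the robust no-drug mean and capped at 1, with single-drug fitness inferred from combinations. Summaries are quartiles over technical, biological and donor/recipient replicates.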

The next assay concerns S. aureus Newman. The essentials:
as §1

A further assay deals with B. subtilis 168. In outline: as §1
Another assay concerns S. pneumoniae D39V. The essentials: as §1

Twelve compounds from the supplement of paper PMC10627819 can be followed below.
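Also: first quartile when negative (synergy) and third quartile when positive (antagonism).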

For the compound `CC[C@H]1OC(=O)[C@H](C)[C@@H](O[C@H]2C[C@@](C)(OC)[C@@H](O)[C@H](C)O2)[C@H](C)[C@@H](O[C@@H]2O[C@H](C)C[C@H](N(C)C)[C@H]2O)[C@](C)(O)C[C@@H](C)C(=O)[C@H](C)[C@@H](O)[C@]1(C)O` [Erythromycin] + Cc1ncc([N+](=O)[O-])n1CCO [Metronidazole], the Bliss interaction score with S. aureus DSM 20231 is -0.0288; in the assay with S. aureus Newman, -0.0396; in the assay on B. subtilis 168, -0.0335; in the assay on S. pneumoniae D39V, 0.0719.
Take `CC[C@H]1OC(=O)[C@H](C)[C@@H](O[C@H]2C[C@@](C)(OC)[C@@H](O)[C@H](C)O2)[C@H](C)[C@@H](O[C@@H]2O[C@H](C)C[C@H](N(C)C)[C@H]2O)[C@](C)(O)C[C@@H](C)C(=O)[C@H](C)[C@@H](O)[C@]1(C)O` [Erythromycin] + Cc1onc(-c2ccccc2)c1C(=O)N[C@@H]1C(=O)N2[C@@H]1SC(C)(C)[C@@H]2C(=O)O [Oxacillin]: the Bliss interaction score in the assay on S. aureus DSM 20231 is 0.0345; in the assay with S. aureus Newman it was 0.0255; with B. subtilis 168, -0.0427; in the assay with S. pneumoniae D39V it was 0.0509.
Taken in the same sequence, the figures for `CC[C@H]1OC(=O)[C@H](C)[C@@H](O[C@H]2C[C@@](C)(OC)[C@@H](O)[C@H](C)O2)[C@H](C)[C@@H](O[C@@H]2O[C@H](C)C[C@H](N(C)C)[C@H]2O)[C@](C)(O)C[C@@H](C)C(=O)[C@H](C)[C@@H](O)[C@]1(C)O` [Erythromycin] + Clc1ccc(COC(Cn2ccnc2)c2ccc(Cl)cc2Cl)c(Cl)c1 [Miconazole] were 0.0299, 0.0457, -0.0519 and 0.114.
As for `CC[C@H]1OC(=O)[C@H](C)[C@@H](O[C@H]2C[C@@](C)(OC)[C@@H](O)[C@H](C)O2)[C@H](C)[C@@H](O[C@@H]2O[C@H](C)C[C@H](N(C)C)[C@H]2O)[C@](C)(O)C[C@@H](C)C(=O)[C@H](C)[C@@H](O)[C@]1(C)O` [Erythromycin] + Cn1nnc(-c2ccc(-c3ccc(N4C[C@H](CO)OC4=O)cc3F)cn2)n1 [Tedizolid], the Bliss interaction score was -0.0541 in the assay with S. aureus DSM 20231, -0.07 with S. aureus Newman, -0.0574 with B. subtilis 168 and 0.0787 with S. pneumoniae D39V.
Taken in the same sequence, the figures for `CC[C@H]1OC(=O)[C@H](C)[C@@H](O[C@H]2C[C@@](C)(OC)[C@@H](O)[C@H](C)O2)[C@H](C)[C@@H](O[C@@H]2O[C@H](C)C[C@H](N(C)C)[C@H]2O)[C@](C)(O)C[C@@H](C)C(=O)[C@H](C)[C@@H](O)[C@]1(C)O` [Erythromycin] + O=C1CN(/N=C/c2ccc([N+](=O)[O-])o2)C(=O)N1 [Nitrofurantoin] were -0.0518, -0.0513, -0.0393 and -0.197.
As to `CC[C@H]1OC(=O)[C@H](C)[C@@H](O[C@H]2C[C@@](C)(OC)[C@@H](O)[C@H](C)O2)[C@H](C)[C@@H](O[C@@H]2O[C@H](C)C[C@H](N(C)C)[C@H]2O)[C@](C)(O)C[C@@H](C)C(=O)[C@H](C)[C@@H](O)[C@]1(C)O` [Erythromycin] + Oc1cc(Cl)ccc1Oc1ccc(Cl)cc1Cl [Triclosan], the Bliss interaction score with S. aureus DSM 20231 was -0.0265; in the assay on S. aureus Newman, 0.0312; in the assay on B. subtilis 168, -0.0438; with S. pneumoniae D39V, -0.0874.
Taken in the same sequence, the figures for `CC(=O)NC[C@H]1CN(c2ccc(N3CCOCC3)c(F)c2)C(=O)O1` [Linezolid] + CC1(C)S[C@@H]2[C@H](NC(=O)Cc3ccccc3)C(=O)N2[C@H]1C(=O)O [PenicillinG] were 0.0632, -0.0481, -0.0653 and 0.0505.
The matching figures for `CC(=O)NC[C@H]1CN(c2ccc(N3CCOCC3)c(F)c2)C(=O)O1` [Linezolid] + CC[C@H]1OC(=O)[C@H](C)C(=O)[C@H](C)[C@@H](O[C@@H]2O[C@H](C)C[C@H](N(C)C)[C@H]2O)[C@](C)(OC)C[C@@H](C)C(=O)[C@H](C)[C@H]2N(CCCCn3cnc(-c4cccnc4)c3)C(=O)O[C@]12C [Telithromycin]: -0.133, -0.074, -0.143 and -0.0921.
As to `CC(=O)NC[C@H]1CN(c2ccc(N3CCOCC3)c(F)c2)C(=O)O1` [Linezolid] + CN(C)C(=O)C(CCN1CCC(O)(c2ccc(Cl)cc2)CC1)(c1ccccc1)c1ccccc1 [Loperamide], the Bliss interaction score in the assay with S. aureus DSM 20231 is 0.116; in the assay with S. aureus Newman, -0.0501; with B. subtilis 168, 0.0436; in the assay with S. pneumoniae D39V it was 0.176.
Turning to `CC(=O)NC[C@H]1CN(c2ccc(N3CCOCC3)c(F)c2)C(=O)O1` [Linezolid] + CN[C@H](CC(C)C)C(=O)N[C@H]1C(=O)N[C@@H](CC(N)=O)C(=O)N[C@H]2C(=O)N[C@H]3C(=O)N[C@H](C(=O)N[C@H](C(=O)O)c4cc(O)cc(O)c4-c4cc3ccc4O)[C@H](O[C@H]3C[C@](C)(N)[C@@H](O)[C@H](C)O3)c3ccc(c(Cl)c3)Oc3cc2cc(c3O[C@@H]2O[C@H](CO)[C@@H](O)[C@H](O)[C@H]2O[C@H]2C[C@](C)(NCc3ccc(-c4ccc(Cl)cc4)cc3)[C@@H](O)[C@H](C)O2)Oc2ccc(cc2Cl)[C@H]1O [Oritavancin], the Bliss interaction score with S. aureus DSM 20231 was -0.0323; in the assay with S. aureus Newman, -0.0463; with B. subtilis 168, 0.0399; with S. pneumoniae D39V, 0.0845.
Take `CC(=O)NC[C@H]1CN(c2ccc(N3CCOCC3)c(F)c2)C(=O)O1` [Linezolid] + CO[C@@]12[C@H](COC(N)=O)C3=C(C(=O)C(C)=C(N)C3=O)N1C[C@@H]1N[C@@H]12 [MitomycinC]: the Bliss interaction score in the assay with S. aureus DSM 20231 is -0.068; in the assay with S. aureus Newman it was 0.0823; with B. subtilis 168, 0.0314; in the assay on S. pneumoniae D39V it was -0.0668.
With `CC(=O)NC[C@H]1CN(c2ccc(N3CCOCC3)c(F)c2)C(=O)O1` [Linezolid] + Oc1cc(Cl)ccc1Oc1ccc(Cl)cc1Cl [Triclosan], the Bliss interaction score in the assay on S. aureus DSM 20231 was -0.0777; with S. aureus Newman, 0.026; in the assay on B. subtilis 168 it was 0.0335; in the assay with S. pneumoniae D39V it was -0.0928.
